From ChEMBL document CHEMBL1201862, “PubChem BioAssay data set” (2004) come the findings set out here.

Molecules are shown by their SMILES.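 Exposure lasted 48 hours, with cells grown in 96-well plates and compounds tested at five concentrations. At the GI50, growth is halved.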 Activity calls are given as the source filed them. No stated cut-off is given here; in the data, active = GI50 up to about 1.1 µM and inactive = higher. Bounds are passed on as bounds.

Some test systems named below: MDA-MB-435; UACC-257; NCI-H226; NCI-H23; HCT-116; OVCAR-4; DU-145; A549; SK-MEL-28; SF-268; IGROV-1; OVCAR-8; EKVX; HT-29; SK-OV-3; A498; HCT-15; MOLT-4; NCI-H460; Malme-3M.
What all share (test): NCI tumour cell line growth inhibition, 48 h

With `CNc1ncnc2c1cnn2Cc1cn(COCC(O)CO)nn1` (configuration not stated), the GI50 with MDA-MB-435, with UACC-257, in the test with NCI-H226, in the test with NCI-H23, in the test on HCT-116 and with OVCAR-4 was > 100 µM (inactive) in each case. For the same compound, the GI50 with DU-145 was > 100 µM (inactive); in the test with A549, > 100 µM (inactive); in the test on SK-MEL-28, > 100 µM (inactive); in the test with SF-268, 4.97 µM (inactive); in the test on IGROV-1, > 100 µM (inactive); in the test on OVCAR-8 it was > 100 µM (inactive). Besides, the GI50 is > 100 µM (inactive) in the test on EKVX; > 100 µM (inactive) with HT-29; > 100 µM (inactive) in the test with SK-OV-3; > 100 µM (inactive) with A498; greater than 100 µM in the test on HCT-15.
Consider `CCSC1=CC2(O)N(CCc3ccc(OC)c(OC)c3)C(=O)CC2(C(=O)OC)CC1=O` (configuration not stated), for which the GI50 with MDA-MB-435 is 21.2 µM (inactive); with UACC-257, 17.9 µM (inactive); with NCI-H226, > 100 µM (inactive); in the test on NCI-H23 it was 18.4 µM (inactive); in the test with HCT-116, 17.9 µM (inactive); in the test with OVCAR-4 it was 35.8 µM (inactive). The GI50 in the test with DU-145 is 18.2 µM (inactive); in the test with A549, > 100 µM (inactive); in the test with SK-MEL-28 it was 37.2 µM (inactive); in the test with IGROV-1, 18.2 µM (inactive); in the test on OVCAR-8 it was 16.6 µM (inactive); with EKVX it was 40.1 µM (inactive). The GI50 in the test on HT-29 was 18.6 µM (inactive); in the test with SK-OV-3, 86.9 µM (inactive); in the test on MOLT-4, 23.8 µM (inactive); in the test with A498, > 100 µM (inactive); with HCT-15, 25.8 µM.
Turning to `COc1ccc2[nH]c3c(c2c1)CCc1ccccc1-3`, the GI50 is > 100 µM (inactive) in the test with MDA-MB-435; > 100 µM (inactive) in the test with UACC-257; > 100 µM (inactive) in the test on NCI-H226; 41.7 µM (inactive) in the test on NCI-H23; > 100 µM (inactive) with HCT-116; 37.6 µM (inactive) in the test with OVCAR-4. In addition, the GI50 is > 100 µM (inactive) with DU-145; > 100 µM (inactive) in the test on A549; > 100 µM (inactive) in the test on SK-MEL-28; 38.7 µM (inactive) with SF-268; 19.8 µM (inactive) in the test on IGROV-1; 27.7 µM (inactive) in the test on OVCAR-8. Besides, the GI50 was 17.6 µM (inactive) in the test on EKVX; > 100 µM (inactive) in the test with HT-29; 40.9 µM (inactive) in the test on SK-OV-3; 80.9 µM (inactive) with MOLT-4; 70.5 µM with HCT-15; 30.8 µM (inactive) in the test on NCI-H460. The GI50 in the test with Malme-3M is 39.2 µM (inactive).
For the compound `c1ccc2c(c1)CCc1c-2n(CCN2CCOCC2)c2ccccc12`, the GI50 in the test with MDA-MB-435 is > 100 µM (inactive); with UACC-257, 32.9 µM (inactive); with NCI-H226 it was 52.6 µM (inactive); in the test with NCI-H23, > 100 µM (inactive); in the test on HCT-116 it was > 100 µM (inactive); in the test with OVCAR-4 it was > 100 µM (inactive). Moreover, the GI50 in the test on DU-145 is > 100 µM (inactive); with A549, > 100 µM (inactive); with SK-MEL-28, 34.6 µM (inactive); with SF-268, > 100 µM (inactive); in the test with IGROV-1 it was 11.7 µM (inactive); in the test with OVCAR-8, > 100 µM (inactive). The GI50 in the test on EKVX is > 100 µM (inactive); in the test with HT-29 it was 13.2 µM (inactive); with SK-OV-3, 26 µM (inactive); with MOLT-4 it was 29.9 µM (inactive); with HCT-15, greater than 100 µM; with NCI-H460 it was 26.5 µM (inactive). Besides, the GI50 with Malme-3M was 13.6 µM (inactive).
